In patent publication US20200199247A1, “ANTIBODY CONJUGATES OF IMMUNE-MODULATORY COMPOUNDS AND USES THEREOF” (SILVERBACK THERAPEUTICS, INC., priority 2017, published 2020):
Peptide text beside a SMILES is read from it. * marks the point of attachment. Cbz = O=C(OCc1ccccc1)*

Columns and labels:
TGFβR1 [1] = molecular target: T1, TGFβR1 (Homo sapiens, UniProt P36897); assay: TGFβR1 level in HER2-transfected HEK293 cells (western blot); assay type: cell-based; set-up: Plasmid expressing HER2 was transfected into HEK293 cells; endogenous in cells; host or cells: HEK293 cells transiently transfected with a HER2 plasmid; conditions: 2, 24 and 48 hours of treatment
T1 sequence (P36897 34-503): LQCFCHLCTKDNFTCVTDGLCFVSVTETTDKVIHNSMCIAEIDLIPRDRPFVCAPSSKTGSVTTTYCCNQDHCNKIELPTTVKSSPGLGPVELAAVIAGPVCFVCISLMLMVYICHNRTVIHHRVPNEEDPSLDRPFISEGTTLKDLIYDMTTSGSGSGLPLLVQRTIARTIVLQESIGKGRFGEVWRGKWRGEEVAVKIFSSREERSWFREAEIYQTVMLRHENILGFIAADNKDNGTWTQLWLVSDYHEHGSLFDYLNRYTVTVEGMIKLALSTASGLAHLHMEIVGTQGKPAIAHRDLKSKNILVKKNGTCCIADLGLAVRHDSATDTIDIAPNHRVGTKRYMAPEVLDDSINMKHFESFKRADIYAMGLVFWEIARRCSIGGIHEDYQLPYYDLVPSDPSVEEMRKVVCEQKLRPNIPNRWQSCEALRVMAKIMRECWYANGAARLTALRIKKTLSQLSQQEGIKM
Procedure: After treatment, media is aspirated and cells are rinsed with ice cold PBS. Ice cold lysis buffer (20 mM TrisHCl pH 7.5, 150 mM NaCl, 1% Triton X-100, 2 mM EDTA and 10% glycerol) containing phosphatase and protease inhibitors is added to wells and cells are removed from the plate using a cell scraper. Lysates are transferred to a 1.5 ml tube and rocked for one hour at 4° C. with vortexing every ˜15 minutes. Tubes are spun at 8500×g for 10 minutes and supernatants are drawn into an insulin needle twice. Cell lysates are frozen at ˜80° C. Protein concentration is determined using a BCA assay and equal amounts of samples are boiled with reducing loading buffer. […] Loading controls are detected with 1:15000 diluted primary antibody incubation at room temperature for 1 hour with rocking (Tubulin—Abcam, ab7291; Actin—Abcam, ab8224). […]
Plasmid expressing HER2 was transfected into HEK293 cells using commercially available materials and conditions. […] Whole cell lysates were prepared from cells after 2, 24, or 48 hours incubation and quantitated with a BCA assay. Equal amounts of lysates were run on protein gels, transferred to PVDF, and TGFβR2 was detected using commercially available reagents. To quantitate the amount of protein degradation, the signals on the Western blot were adjusted to actin loading control and data is presented as a percent of matched control.

TGFβR1 [2] = molecular target: T1, TGFβR1; assay: Cellular level of TGFβR1 in normal human lung fibroblasts with or without proteasome inhibitor (western blot); assay type: cell-based; set-up: endogenous in cells; host or cells: normal human lung fibroblasts
Procedure: Cells are plated, allowed to adhere, and treated with vehicle, an inhibitor, a PROTAC or a conjugate in the presence or absence of proteasome inhibitor, such as MG-132. After treatment, media is aspirated and cells are rinsed with ice cold PBS. Ice cold lysis buffer (20 mM TrisHCl pH 7.5, 150 mM NaCl, 1% Triton X-100, 2 mM EDTA and 10% glycerol) containing phosphatase and protease inhibitors is added to wells and cells are removed from the plate using a cell scraper. Lysates are transferred to a 1.5 ml tube and rocked for one hour at 4° C. with vortexing every ˜15 minutes. Tubes are spun at 8500×g for 10 minutes and supernatants are drawn into an insulin needle twice. Cell lysates are frozen at […]. Protein concentration is determined using a BCA assay and equal amounts of samples are boiled with reducing loading buffer. The samples are then subjected to electrophoresis on 4-20% polyacrylamide gels which are then transferred to PVDF membranes. […] Loading controls are detected with 1:15000 diluted primary antibody incubation at room temperature for 1 hour with rocking (Tubulin—Abcam, ab7291; Actin—Abcam, ab8224). […]
Normal human lung fibroblasts were treated with or without proteasome inhibitor MG-132 followed by the addition of DMSO or T-20. Whole cell lysates were prepared and then quantitated with a BCA assay. […] TGFβR1, TGFβR2, and actin were detected using commercially available reagents. […]

amount of TGFβR1 protein (TGFβR1 [1]) | degradation of TGFβR1 (TGFβR1 [2]; 5 μM T-20) | SMILES | effect of proteasome inhibitor on T-20 induced degradation of TGFβR1 (TGFβR1 [2]; MG132 10 and 50 μM followed by 5 μM T-20)
remained fairly constant | degradation induced by T-20 | Nc1ncc(-c2ccc(CCNC(=O)[C@@H](N)CCCCNC(=O)COc3cccc4c3C(=O)N(C3CCC(=O)NC3=O)C4=O)cc2)nc1C(=O)Nc1cnccc1N1CCOCC1 (stereo partly drawn) [Compound T-20, 3-amino-6-(4-(2-((2S)-2-amino-6-(2-((2-(2,6-dioxopiperidin-3-yl)-1,3-dioxoisoindolin-4-yl)oxy)acetamido)hexanamido)ethyl)phenyl)-N-(4-morpholinopyridin-3-yl)pyrazine-2-carboxamide] | 
 |  | CC(C)C[C@@H](C=O)NC(=O)[C@H](CC(C)C)NC(=O)[C@H](CC(C)C)NC(=O)OCc1ccccc1 [MG-132, reference compound] (Cbz-Leu-Leu-Leu-aldehyde) | protected
